The assay concerns P. berghei ANKA GFP. In kind it is in vivo, C57BL/6 mice. The settings on record: treated twice daily days 2-3; observed from about day 5 to day 8 of infection. On the procedure: It has previously been shown that administration of CO by inhalation protects P. berghei ANKA infected C57BL/6 mice from developing ECM (see, e.g., Pamplona et al. Nat Med (2007) 13:703-710). The inventors questioned whether CO-RMs could mimic the protection conferred by CO inhalation in P. berghei ANKA infection. To this end, a known ruthenium CORM, Ru(CO)3Cl2, also referred to herein as CORM-2, was tested on different schedules of treatment and doses in P. berghei ANKA infected C57BL/6 mice (data not shown).
Red blood cells infected with green fluorescent protein (GFP)-transgenic P. berghei ANKA and P. berghei ANKA was used to infect mice (see, e.g., Franke-Fayard et al. Mol Biochem Parasitol (2004) 137:23-33). Cryopreserved parasites were passed once through C57BL/6 or DBA-2 mice before being used to infect experimental animals. C57BL/6 or DBA-2, 6- to 8-wk-old mice (sex matched in each experiment) were infected by intra-peritoneal (i.p.) injection of 10^6 infected RBCs. The infected mice were monitored daily for clinical symptoms of experimental cerebral malaria (ECM) including hemi- or paraplegia, head deviation, tendency to roll over on stimulation, ataxia and convulsions, or ALI, including dyspnea. Mice showing severe signs of ECM at day 5, 6 or 7 post-infection (p.i.) and ALI between days 7 and 9 were sacrificed. Parasitemia was assessed by flow cytometry for mice infected with GFP-expressing P. berghei ANKA, using tail blood, as previously described (see, e.g., Pamplona et al., Nat Med (2007) 13:703-710). Mean parasitemia is expressed as percentage of infected red blood cells. For mice infected with non-GFP P. berghei parasitemia was assessed daily by microscopic counting of Giemsa-stained thin blood smears. Mean parasitemia is expressed as percentage of infected red blood cells. Survival is expressed as percentage.
In order to evaluate the clinical presentation of experimental cerebral malaria, a classification was used in clinical stages from 0 to 4 (see, e.g., Bienvenu et al., Acta Trop (2008) 106:104-8; Franklin et al., Proc Natl Acad Sci USA (2011) 108:3689-94). Briefly, stage 0 indicates no detectable clinical symptoms, stage 1, ruffled fur; stage 2, ruffled fur and unbalancing; stage 3, limb paralysis and respiratory distress and stage 4, convulsions, coma or death. The mice were clinically classified before and after the treatment to evaluate the clinical recovery.
CORM-2 (Sigma-Aldrich) and Compound 2 were solubilized using 10% dimethyl sulfoxide (DMSO; Sigma-Aldrich) in PBS. CORM-3 and Compound 1 were solubilized in PBS (lx). CORM-2 solution (20 mg/kg of body weight) was administered intravenously (i.v.) according to the chosen schedules. […] As vehicle control, we used a solution of 10% DMSO in PBS administered i.v. The concentrations of CORM-2 used in the present study were based on previous reports (see, e.g., Chen et al. Am. J. Pathol. (2009) 175:422-429; Sun et al., World. J. Gastroenterol. (2008) 14:547-553). Artesunate is presented as a powder of artesunic acid. Artesunate (AS) solution was prepared by dissolving 60 mg of anhydrous artesunic acid in 1 ml of sodium bicarbonate (5%) to form sodium artesunate and then diluted in 5 ml of NaCl (0.9%). An AS solution (i.p.) was administered at 40 mg/Kg/day, as described previously (see, e.g., Bienvenu, Acta Trop (2008) 106:104-108). The AS treatment was started when the infected non-treated mice presented the clinical stage 1 for experimental cerebral malaria.

For the molecule `C[SH]([C@@H]1OC(CO)[C@H](O)[C@H](O)C1O)[Ru]([Cl])([Cl])([CH]=O)([CH]=O)[CH]=O` (stereo partly shown) [Compound 1, Tricarbonyldichloro(methylthiogalactopyranoside) Ru(II)], the effect on parasitemia result is recorded as “small but significant arrest in parasitemia”.

The values above are taken from US9611286B2, “Ruthenium carbon monoxide releasing molecules and uses thereof” (Alfama, Inc., priority 2011, dated 2017).
